Test results as given in PubChem BioAssay AID1996.
Converted amounts (≈) assume the structure as drawn.

Conditions: buffer; pH 7.4; 200.0 µM

| solubility kinetic | Structure (SMILES) |
| --- | --- |
| > 73.3 µg/mL | COc1ccc(NC(=O)CN(C)CC(=O)N(CC(C)C)c2c(N)n(CC(C)C)c(=O)[nH]c2=O)cc1 |
| 3.6 µg/mL (≈ 9.8 µM) | COc1ccccc1N1CCN(C(=O)/C=C/c2cccc([N+](=O)[O-])c2)CC1 |
| 53.6 µg/mL (≈ 138 µM) | CC(=O)c1ccc(S(=O)(=O)N2CCN(CCOc3ccccc3)CC2)cc1 |
| > 52.6 µg/mL | CCCCNC(=O)Cn1nc(Cc2ccncc2)c2ccccc2c1=O |
| > 50 µg/mL | Cc1cc(NC(=O)CSCC(=O)NC(C)c2ccccc2)no1 (stereo not given) |
| 18.4 µg/mL (≈ 58.7 µM) | CN(Cc1nc(CCc2ccccc2)no1)Cc1cccs1 |
| 5.6 µg/mL (≈ 15.8 µM) | CCCCc1nc(C(N)=O)c2[nH]c(=O)n(-c3ccc(OCC)cc3)c2n1 |
| > 41.9 µg/mL | Nc1ccc(C(=O)OCC(=O)NC2CC2)cc1[N+](=O)[O-] |
| 4.2 µg/mL (≈ 14.4 µM) | COc1cc2ccccc2cc1C(=O)Nc1cc(C)ccn1 |
| 36.1 µg/mL (≈ 110 µM) | CCSc1ncccc1C(=O)N[C@@H](CCSC)C(=O)OC |
| 0.4 µg/mL (≈ 1.24 µM) | Cc1ccc(-c2csc(NC3OC(=O)c4ccccc43)n2)cc1 (stereo not given) |
| > 45.7 µg/mL | COc1ccc(N2CCN(c3ccc(Cl)nn3)CC2)cc1 |
| 30.3 µg/mL (≈ 98.5 µM) | O=C(c1cc(F)c(F)cc1Cl)N1CCCc2ccccc21 |
| > 53.2 µg/mL | O=C(O)CC(NC(=O)C1CCCCC1)c1cc([N+](=O)[O-])ccc1Cl (stereo not given) |
| 3.7 µg/mL (≈ 11.6 µM) | O=C(O)Cc1ccc(NC(=O)Cc2ccc3ccccc3c2)cc1 |
| > 40.9 µg/mL | CC(C)C(=O)Nc1cc2c3c(c1)CCC(=O)N3CCC2 |
| > 49.3 µg/mL | COC(=O)C(Cc1c[nH]c2ccccc12)NC(=O)c1cccs1 (stereo not given) |
| 12.6 µg/mL (≈ 39 µM) | CN(C)C(=O)COc1ccc2c(-c3ccccc3)cc(=O)oc2c1 |
| 2.6 µg/mL (≈ 8.66 µM) | COc1ccc(N=C2NC(=O)/C(=C\c3ccco3)S2)cc1 |
| > 51.1 µg/mL | COc1cccc2c1O/C(=N\O)C(C(=O)Nc1cccc(C)c1C)C2 (stereo not given) |
| > 39.2 µg/mL | COCCCNc1ncnc2c1nc1n2CCCC1 |
| 38.3 µg/mL (≈ 144 µM) | O=C1c2ccccc2C(O)(c2ccccc2)N1C1CC1 (stereo not given) |
| 32.6 µg/mL (≈ 126 µM) | O=C(c1cc(-c2cccc(O)c2)on1)N1CCCC1 |
| > 37.1 µg/mL | COC(=O)C(=C/C=C/c1cccnc1)C(=O)OC |

| solubility kinetic | Structure (SMILES) |
| --- | --- |
| > 41.3 µg/mL | CCc1ccc(NC(=O)NCCN2CCCCC2)cc1 |
| 2 µg/mL (≈ 5.46 µM) | O=C(CN1c2cccc3cccc(c23)S1(=O)=O)NCCc1ccccc1 |
| 12.5 µg/mL (≈ 55 µM) | CC(C)Oc1ncnc2c1[nH]c1ccccc12 |
| 13.2 µg/mL (≈ 47.1 µM) | Cc1cccc(NC(=O)N2CCCc3ccccc32)c1C |
| > 49.6 µg/mL | CC1(C)CC(NS(=O)(=O)c2ccc(Cl)cc2)CC(C)(C)N1 |
| 6.7 µg/mL (≈ 21.3 µM) | Cc1ccc(-c2nc(=O)[nH]c3ccc(Br)cc23)cc1 |
| 33.7 µg/mL | Cl.c1cc(CNC2C3CC4CC(C3)CC2C4)ccn1 (stereo not given) |
| > 47.6 µg/mL | Cc1cccc(C)c1NC(=O)CCCCCC1NC(=O)NC1C (stereo not given) |
| > 44.6 µg/mL | CCCc1cc(=O)[nH]c(SCC(=O)N2CCOCC2)n1 |
| > 37.3 µg/mL | Cn1cccc1C(=O)NCc1ccc(Cl)cc1 |
| 39.9 µg/mL (≈ 115 µM) | Cc1ccc(/C=C(\NC(=O)c2ccccc2)C(=O)N2CCCCC2)cc1 |
| 39.3 µg/mL (≈ 138 µM) | Cc1ccc2c(C(=O)CN3CCCC(C)C3)c(C)[nH]c2c1 (stereo not given) |
| > 33.3 µg/mL | CCn1c(=S)[nH]c2cc(C(=O)O)ccc21 |
| > 53.5 µg/mL | CCN(Cc1ccccc1)S(=O)(=O)c1ccc(OC)c2ncccc12 |
| > 47.5 µg/mL | Cc1ccc(C2=NN(CC(=O)NCCN(C)C)C(=O)CC2)cc1 |
| > 46.2 µg/mL | CCOC(=O)Cc1csc(NC(=O)c2ccc(F)cc2)n1 |
| 24.4 µg/mL (≈ 121 µM) | COCCCNCC(O)C(F)(F)F (stereo not given) |
| 9 µg/mL (≈ 26.8 µM) | N#C/C(=C(/O)COC(=O)c1ccc(O)cc1)c1nc2ccccc2[nH]1 |
| 4.9 µg/mL (≈ 15.2 µM) | Cc1ccc(NC(=O)CCN2C(=O)c3ccccc3C2=O)c(C)c1 |
| > 46.3 µg/mL | O=C(c1ccc(Cl)s1)N1CCN(c2ncccn2)CC1 |
| 31.7 µg/mL (≈ 96.3 µM) | COc1cccc(/C(N)=N/OC(=O)Cc2ccccc2[N+](=O)[O-])c1 |
| 4.1 µg/mL (≈ 16.2 µM) | Cc1ccc(-c2c(C#N)c(N)nc3c2CCCC3)o1 |
| 28.8 µg/mL (≈ 79.4 µM) | Cc1[nH]c2c(C)cccc2c1CN1CCC(CO)(Cc2ccccc2)CC1 |
| 16.6 µg/mL (≈ 71.8 µM) | CCc1cc(C(=O)c2ccccc2)c(N)s1 |

| solubility kinetic | Structure (SMILES) |
| --- | --- |
| > 57.5 µg/mL | COc1ccc(CN2CCOCCOCCOCCOCCOCC2)cc1 |
| > 46.6 µg/mL | Cc1ccc(CNC(=O)C2CCCN(c3cnccn3)C2)cc1 (stereo not given) |
| > 51.1 µg/mL | Cc1cc(C(=O)OCC(=O)N2C(C)CCCC2C)c2ccccc2n1 (stereo not given) |
| 21.9 µg/mL (≈ 125 µM) | Cn1c(N)nc2ccccc2c1=O |
| 32.6 µg/mL (≈ 118 µM) | NC(=O)CCC1NC(=S)N(Cc2ccccc2)C1=O (stereo not given) |
| > 42.3 µg/mL | CC1=C([N+](=O)[O-])C(c2ccccc2Cl)NC(=O)N1C (stereo not given) |
| 4.2 µg/mL (≈ 12.2 µM) | Cc1csc2nc(O)c(C(=O)NCCCc3ccccc3)c(=O)n12 |
| 29.7 µg/mL (≈ 121 µM) | CC(=O)c1c(O)c2ccccc2n(C(C)C)c1=O |
| > 45.8 µg/mL | CC(=O)c1ccc(NC(=S)NN2C(C)CCCC2C)cc1 (stereo not given) |
| 26.3 µg/mL | O=C(C[n+]1ccccc1)Nc1ccccc1 |
| 40.8 µg/mL (≈ 137 µM) | Cc1[nH]c2ccccc2c1C(=O)CSc1cccc[n+]1[O-] |
| > 48.5 µg/mL | S=C1NCN(Cc2ccco2)CN1c1cccc2ccccc12 |
| > 32.3 µg/mL | CC1CCc2cccc3c(O)cc(=O)n1c23 (stereo not given) |
| 0.9 µg/mL (≈ 2.97 µM) | O=[N+]([O-])c1ccccc1OCc1nc(-c2cccs2)no1 |
| 22.2 µg/mL (≈ 103 µM) | Cc1ccc(/C=[N+](\[O-])c2ccccc2C)o1 |
| 29.7 µg/mL (≈ 102 µM) | Cc1ccc(S(=O)(=O)c2c(C)c(C)c(C)[nH]c2=O)cc1 |
| > 38.6 µg/mL | O=C(CNC(=O)c1ccc(F)cc1)c1ccccc1 |
| 6.6 µg/mL (≈ 20.5 µM) | C/C(=N\OC(=O)c1ccc(C)cc1)c1c(C)nc2cc(C)ccn12 |
| 32.2 µg/mL (≈ 116 µM) | CC(=O)Nc1ccc(NC(=S)NC(=O)C2CC2)cc1 |
| > 42.2 µg/mL | O=c1[nH]cc(S(=O)(=O)NCc2ccccc2)c(=O)[nH]1 |
| 34.7 µg/mL (≈ 140 µM) | Cc1noc(C)c1C(=O)NCc1ccccc1F |
| 47.8 µg/mL (≈ 140 µM) | Cc1ccnc(NS(=O)(=O)c2ccc(NS(C)(=O)=O)cc2)n1 |
| 0.5 µg/mL (≈ 1.45 µM) | Fc1cc(Cl)c(OCc2noc(-c3ccsc3)n2)c(Cl)c1 |
| 36.7 µg/mL (≈ 105 µM) | Cc1ccc(N(CC2CO2)S(=O)(=O)c2ccccc2[N+](=O)[O-])cc1 (stereo not given) |

| solubility kinetic | Structure (SMILES) |
| --- | --- |
| > 60.5 µg/mL | COc1cccc(S(=O)(=O)NCc2ccc(C(=O)N3CCN(C)CC3)cc2)c1 |
| 30.7 µg/mL (≈ 86.6 µM) | COc1ccc(CC(=O)Nc2ccccc2N2CCCCC2)cc1OC |
| 0.5 µg/mL (≈ 1.6 µM) | CSc1ccc(Cl)c(C(=O)Nc2ccc(Cl)cn2)c1 |
| 38.4 µg/mL (≈ 110 µM) | O=C(O)c1ccccc1-c1ccccc1C(=O)NCc1ccccc1F |
| 13.1 µg/mL (≈ 44.2 µM) | CN1C(=O)c2ccc(C(=O)Nc3ccccc3O)cc2C1=O |
| > 66.5 µg/mL | CN1CCN(CC/C=C2/c3ccccc3Sc3ccc(S(=O)(=O)N(C)C)cc32)CC1 |
| 37.9 µg/mL (≈ 127 µM) | CCc1ccc(OCC(=O)O/N=C(\N)c2ccccn2)cc1 |
| < 0.7 µg/mL | CC1CCN(Cc2cc(=O)oc3cc4c(cc23)CCCC4)CC1 |
| 6.4 µg/mL (≈ 16.9 µM) | O=C(COC(=O)CCC(=O)c1ccc(Cl)cc1)NCc1ccc(F)cc1 |
| > 27.8 µg/mL | Cc1ccc2cc3c(nc2c1)OCC3 |
| 24.9 µg/mL (≈ 82.3 µM) | CCc1ccc(/C=C2\SC(N3CCOCC3)=NC2=O)cc1 |
| > 45.3 µg/mL | COc1ccc(NC(=O)CSC2=NCCN2)cc1.Cl |
| < 0.3 µg/mL | COc1ccc(-c2cc(C(=O)Nc3ccccc3F)on2)cc1 |
| 23.9 µg/mL (≈ 83.2 µM) | CNc1nc(-c2c(C)n(C)c3ccc(OC)cc23)cs1 |
| > 56.5 µg/mL | O=C(Nc1ccc(Oc2ccccc2)cc1)N[C@@H](Cc1ccccc1)C(=O)O |
| > 44 µg/mL | N#C/C(=C\c1ccncc1)C(=O)Nc1ccc(C(=O)O)cc1 |
| 16 µg/mL (≈ 47.6 µM) | COc1cccc(C(=O)NCCSCc2ccccc2Cl)c1 |
| 30.1 µg/mL (≈ 123 µM) | O=C(CCCl)N1CCCC2(CCCCC2)C1 |
| 28.4 µg/mL (≈ 104 µM) | CC(=O)Nc1cccc(NC(=O)Cc2cccs2)c1 |
| 19.1 µg/mL (≈ 98.3 µM) | c1ccc(-c2ncc3ccccn23)cc1 |
| 48.7 µg/mL (≈ 149 µM) | Cn1cccc1C(=O)OCC(=O)N1CCN(c2ccccc2)CC1 |
| < 0.4 µg/mL | Cc1ccc(S(=O)(=O)N2CCN(c3ccccc3)CC2)cc1C |
| 43 µg/mL (≈ 146 µM) | CCC(CC)C(=O)OCC(=O)Nc1cccc([N+](=O)[O-])c1 |
| > 49.1 µg/mL | NS(=O)(=O)c1ccc(NC(=S)NC(=O)C2CCCC2)cc1 |

| solubility kinetic | Structure (SMILES) |
| --- | --- |
| > 32.2 µg/mL | CN(C)C(=S)Nc1ccc(Cl)cc1 |
| 8.1 µg/mL (≈ 23.7 µM) | c1ccc(-c2nc3c4ccccc4ccn3c2CN2CCCCC2)cc1 |
| 6.2 µg/mL (≈ 18.4 µM) | O=C(NC1CCN(C(=O)NCc2ccccc2)CC1)c1ccccc1 |
| > 34.4 µg/mL | Cc1ccc(N2C(=O)C3C=NNC3C2=O)cc1 (stereo not given) |
| > 37.4 µg/mL | C/C(=C\c1ccc(N)cc1)c1nc2ccccc2[nH]1 |
| 47.7 µg/mL (≈ 149 µM) | Cc1ccc(C)c(S(=O)(=O)NCc2ccc3c(c2)OCO3)c1 |
| > 37.2 µg/mL | O=C(NCC(=O)N1CCOCC1)c1ccccc1 |
| 49.5 µg/mL (≈ 139 µM) | COc1ccc(OCC(=O)Nc2ccccc2N2CCN(C)CC2)cc1 |
| > 48.7 µg/mL | CCc1cccc(C)c1NC(=O)C1CCCN(S(C)(=O)=O)C1 (stereo not given) |
| > 45.8 µg/mL | COC(=O)c1ccc(COc2ccc(/C=N/O)cc2OC)o1 |
| 19.9 µg/mL (≈ 61 µM) | Cc1ccc(OCCCC(=O)ON=C(N)c2ccccc2C)cc1 |
| > 40.7 µg/mL | O=C(COC(=O)c1ccc(O)cc1)Nc1ccccc1 |
| > 50.5 µg/mL | COc1cc(/C=C/C(=O)OCC(=O)NC(=O)NC(C)C)ccc1O |
| > 33.9 µg/mL | O=C(N/N=C/c1ccccn1)c1ccncc1 |
| 18.1 µg/mL (≈ 64.1 µM) | O=C(CC1CCCC1)Nc1cccc(Br)c1 |
| > 49.3 µg/mL | Cc1ccc(C(=O)C2CCN(CC(=O)NC3CCCC3)CC2)cc1 |
| 40.7 µg/mL (≈ 142 µM) | Cc1ncsc1C(=O)Nc1cccc(C(F)(F)F)c1 |
| > 42 µg/mL | CCC1(C)NC(=O)N(CC(=O)Nc2cc(C)on2)C1=O (stereo not given) |
| 1.8 µg/mL (≈ 5.62 µM) | CCOc1ccc(C(C)NC(=O)Nc2ccc(F)cc2F)cc1 (stereo not given) |
| > 58.1 µg/mL | CCN(Cc1ccncc1)C(=O)c1cccc(S(=O)(=O)N2CCCCC2)c1 |
| 3.8 µg/mL (≈ 12.4 µM) | Cc1ccc(NC(=O)COc2cccc3ccccc23)c(O)c1 |

| Structure (SMILES) | solubility kinetic |
| --- | --- |
| Cc1cc(NC(=O)C(Cl)(Cl)Cl)no1 | 35.7 µg/mL (≈ 147 µM) |
| Cc1cccc(C)c1OCCCCN1CCCCC1.O=C(O)C(=O)O | 45.4 µg/mL |
| CN(C)C(=O)Oc1cccc(NC(=O)c2ccccc2C(F)(F)F)c1 | 37.9 µg/mL (≈ 108 µM) |
